Take `NC(=O)Cc1ccc(OC[C@@H]2CO2)cc1`: the melting point fell in the range of 168 to 169 °C.

For the compound `Nc1c2c(=O)n3c(nc2nn1CC(F)(F)F)SCC3`, the melting point was 285 to 288 °C.

Regarding `COc1cc(N2CCN(C)CC2)c2oc(C(=O)Nc3ccc(N4CCN(C(=O)CCO)CC4)cc3)cc(=O)c2c1`, the melting point was in the range of 195 to 197 °C.

For `O=C(NCC(F)(F)F)c1nn(-c2ccc(F)cc2F)c2c1C1CCC2C1` (centres undefined), the melting point lay in the range of 149 to 152 °C.

With `CCCc1ccc2oc(CCc3ccc(OC)cc3)c(C)c2c1O`, the melting point was in the range of 77 to 79 °C.

Compound `CC(C)Cn1c(CO)c(-c2ccccc2)c2cc(Br)ccc2c1=O` gave a melting point of 176 to 177 °C.

Compound `COc1cc2ncc(NC(=O)C=Cc3cc(OC)c(OC(C)=O)c(OC)c3)c(-c3ccccc3)c2cc1OC` displayed a melting point of 256 to 257 °C.

Turning to `Cc1c(CC(=O)O)c2cc(OCc3ccc4ccccc4n3)ccc2n1C`, the melting point was in the range of 186 to 188 °C.

Regarding `COc1cc(F)ccc1C(=O)NCCN1CCC(O)(c2ccc(Cl)cc2)CC1`, the melting point came to 157 °C.

Compound `CNC(=O)c1ccc(C=CC(=O)NCC(=O)N(C)c2ccc(C)c(CCl)c2C)cc1` gave a melting point of 232 °C.

Take `Cc1ccc(/C=C(/C(=O)OC(C)(C)C)C(=O)c2ccccc2O)cc1`: the melting point lay in the range of 86 to 89 °C.

As for `CNC(=O)c1cccc(C)c1Nc1nc(Nc2ccc3c(c2)C(=O)NCCC3)ncc1Cl`, the melting point was 259 °C.

In turn, `CC(=O)NCC(=NNC(N)=S)c1ccccc1` registered a melting point of 208 to 211 °C.

For `Nc1cc(OCc2ccccc2)c(OCc2ccccc2)cn1`, the melting point lay in the range of 111 to 113 °C.

`CCOC(=O)c1ccc2cc(N)ccn2c1=O` displayed a melting point greater than 250 °C.

The compound `Cc1oc(-c2ccc(C(F)(F)F)cc2)nc1CC#N` showed a melting point of 85 to 86 °C.

Compound `N#Cc1cc(Br)c(OC(=O)OCOC(=O)c2ccc(Oc3ccc(C(F)(F)F)cc3Cl)cc2[N+](=O)[O-])c(Br)c1` came in with a melting point of 122 to 123 °C.

`COC1=CC2=CCC3C4CC(C)C(=O)C4(C)CCC3C2(C)CC1` (centres undefined) registered a melting point of 149 to 167 °C.

For the compound `Oc1ccc2c(c1)OCC(c1ccc(F)cc1)C2c1ccc(OCCN2CCCCC2)cc1` (centres undefined), the melting point is 146 to 147 °C.

In the case of `OC1(Cc2ccccc2)CCN(CCC(c2ccccc2)(c2ccccc2)c2ccccc2)CC1`, the melting point lay within 72 to 74 °C.

For `Cc1ccnc2c1C(=O)CC(c1ccccc1Cl)C2` (centres undefined), the melting point was in the range of 97 to 98 °C.

In turn, `CSc1nc2cncnc2n1Cc1ccc(F)cc1` returned a melting point of 167 °C.

Compound `Cc1cc(C#N)cc(C)c1Oc1ncnc(Nc2ccc(C#N)cc2)n1` returned a melting point of 248 to 250 °C.

In the case of `CC(C(=O)O)c1ccc(I)cc1` (centres undefined), the melting point lay in the range of 101 to 102 °C.

For `CC(C)(C)[Si](C)(C)OCc1cc(-c2ccc3nc(Cl)cn3c2)cs1`, the melting point is 100 to 104 °C.

For the compound `CN1C(=O)SC(=C(CO)c2cccc3ccccc23)C1=O`, the melting point fell in the range of 112 to 113 °C.

Take `CN(C)Cc1ccc(CSCCNC(=N)N[N+](=O)[O-])s1`: the melting point turned out to be 118 °C.

Consider `CCn1ncc2c(Cl)c(CO)cnc21`, for which the melting point came out at 56 °C.

Compound `Oc1cccc(/C=C/c2nc3ccccc3s2)c1` displayed a melting point of 210 to 211 °C.

Compound `FC(F)(F)c1ccc(-c2cc(Oc3ccc4cccnc4c3)nnc2Oc2ccc3cccnc3c2)cc1` showed a melting point of 158 to 162 °C.

Turning to `CN(C)S(=O)(=O)c1ccc2c3c(cccc13)C(NCCCn1ccnc1)=N2`, the melting point fell in the range of 199 to 201 °C.

Turning to `COC(=O)C1=CC(=O)CC(c2ccc(Cl)c(OC)c2F)N1` (centres undefined), the melting point lay in the range of 165 to 166 °C.

On to `Cc1cc2cc(C#CCO)ccc2o1`, for which the melting point is 102 °C.

Consider `CCC(Oc1cccc(C(F)(F)F)n1)C(=O)O` (centres undefined), for which the melting point worked out at 91 °C.

Turning to `CNS(=O)(=O)c1sc2ccccc2c1CC(=O)O`, the melting point was in the range of 190 to 192 °C.

Compound `COC(=O)c1c(Br)ccc2nn(C)c(C)c12` returned a melting point of 109 to 111 °C.

`COc1ccc(S(=O)(=O)Nc2ncnc(OCCO)c2Cc2ccccc2OC)cc1` registered a melting point of 161 to 162 °C.

`COc1cc2c(=O)n3nc(C(=O)O)cc3n(C)c2cc1OC`: the melting point was 284 to 285 °C.

For the compound `On1c(-c2ccccc2)csc1=S`, the melting point was 149 to 151 °C.

Compound `O=Cc1ccc(CCc2ccc(C=O)cc2)cc1` registered a melting point of 121 to 122 °C.

In turn, `N#CC(C=O)=Cc1ccsc1` had a melting point of 123 to 124 °C.

Turning to `Cc1cc(F)ccc1Nc1nc(N(C)c2ccccc2)c2cc(OCCN(C)C)ccc2n1`, the melting point is 112 to 114 °C.

In turn, `COc1cc(COc2nn(-c3ccccc3)cc2C=O)ccc1OCc1nc(-c2ccco2)oc1C` yielded a melting point of 137 to 138 °C.

`CCc1cc(C#N)cc(C(=O)Nc2ccc(F)cn2)n1`: the melting point was 184 °C.

`CCCCC(=O)NC(Cc1ccccc1)C(=O)Nc1c(C(C)C)cccc1C(C)C` (centres undefined) returned a melting point of 237 to 238 °C.

In turn, `CCCc1cc(Cl)c2oc(C(=O)c3ccc(OC)cc3)c(C)c2c1OC(=O)c1ccc(OC)cc1` registered a melting point of 103 to 105 °C.

`Cc1cccc(C)c1-n1cnc(N)nc1=O` had a melting point of 248 to 250 °C.

With `CCCn1c(=O)c2ccc(NC(=O)CC3CCCC3)cc2n1Cc1ccc(C(=O)O)cc1OC`, the melting point was in the range of 122 to 125 °C.

`Cn1cc(C2=C(c3c4n(c5ccccc35)CCC(C#N)C4)C(=O)OC2=O)c2ccccc21` (centres undefined) returned a melting point of 309 to 311 °C.

`CCCCC(=N)NC(=O)Nc1ccccc1Cl` gave a melting point of 132 to 134 °C.

On to `O=C(O)Cc1ncc2c(n1)-c1ccc(Cl)cc1C(c1ccccc1F)=NC2`, for which the melting point was in the range of 138 to 140 °C.

Consider `Nc1cccc(-c2ccc(OCC3CNC3)c3ccccc23)n1`, for which the melting point lay in the range of 88 to 110 °C.

In turn, `CS(=O)(=O)Oc1ccc(-c2sc3cc(OS(C)(=O)=O)ccc3c2C(=O)c2ccc(OCCBr)cc2)cc1` showed a melting point of 105 to 107 °C.

Take `CC(C)[C@H](NCc1ccc(I)cc1)C(=O)O`: the melting point was 256 to 258 °C.

Regarding `O=C(O)c1ccccc1C(=O)N1CCN(c2cc3c(cc2F)c(=O)c(C(=O)O)c2sccn23)CC1`, the melting point was in the range of 277 to 278 °C.

For `C=CC(=O)Cc1ccc(-c2ccc(CC(=O)C=C)cc2)cc1`, the melting point fell in the range of 61 to 62 °C.

As to `COc1ccc([C@@H]2Sc3ccccc3N(CCN(C)C)C(=O)[C@@H]2OC(=O)c2ccc([N+](=O)[O-])cc2Cl)cc1`, the melting point was 153 to 156 °C.

`CCC[C@H]1CC[C@H](C(=O)O)CC1` came in with a melting point of 97 to 98 °C.

`CC(C)(C)OC(=O)N1CCC(c2ccc(Nc3nc4c(-c5ccc(F)cc5)cccn4n3)cc2)CC1`: the melting point was 88 to 91 °C.

Take `CON1CCC2(CC1)OC(=O)C(c1cc(C)c(C)cc1C)=C2O`: the melting point was 199 to 204 °C.

`CC(C)(C)OC(=O)N[C@@H]1CN(c2ccccc2)c2ccccc2NC1=O`: the melting point was in the range of 160 to 165 °C.

The compound `CCCCCCCCCCCCCc1cc(C(=O)OCCBr)c[nH]1` registered a melting point of 67 to 69.5 °C.

Turning to `CCCc1nc(N2CCc3ccccc3CC2)c(C#N)c(=O)[nH]1`, the melting point is 191 to 193 °C.

As for `CC(C)(C)c1nc(N)n(-c2c(Cl)cc(C(F)(F)F)cc2Cl)n1`, the melting point was 208 to 212 °C.

As usually defined, the melting point is the temperature of the solid-liquid transition.
